{
  "source": "patent US9114077B2",
  "about": "“Nanocrystals for use in topical cosmetic formulations and method of production thereof” (priority 2006, dated 2015)",
  "key": {"[1]": {"system": "skin of volunteers (UV erythem)", "experiment": "photo-protective potential after topical application in vivo (MED for UV erythem, SPF)", "conditions": "human volunteers, 2 mg/cm^2 once daily on 4 days, UV irradiation day 4, 15 min after application", "description": "The Rutin and the Hesperidin nanosuspensions were investigated in vivo regarding their photo-protective potential compared to solutions of a water-soluble Rutin conjugate with saccharide (example 15). Topical application of the anti-oxidants should increase the dose required to generate a UV erythem. The higher the photo-protective effect, the higher will be the increase in the MED for UV erythem generation. Based on the ratio MED of treated area/MED untreated area a sun protection factor can be calculated. […] To very well differentiate in efficiency between the preparations, the formulations were applied only over 4 days (day 1, 2, 3 and 4) and only once a day. […] It has to be noted that the selected concentration of Rutin saccharide was equivalent to 5% Rutin.\nVarious formulations were investigated regarding their photo-protective potential after topical application in vivo. These formulations contained antioxidants and the photo-protective potential was evaluated by assessing the MED for generating an UV erythem (MED—minimal dose required for generating an erythem, minimal erythem dose). The sun susceptibility of the skin of volunteers was assessed after four times of application (once daily) of the formulations in comparison to untreated skin. Based on this a sun protection factor (SPF) was calculated.\nThe study was performed as a placebo controlled double blind study. Three male and three female volunteers with normal skin of photo type II to III took part. The medium age of the female volunteers was 49.6±9.8 years (38.8-57.4 years). Topical application of the formulations took place on 4 subsequent days (2 mg/cm^2), once daily. On day 4 eradiation by UV was performed 15 minutes after application of the formulations to the skin using a sun simulator SU6p (m.u.t. GmbH, Wedel/Germany). The sun simulator created 6 single doses with a geometric increment of 25%. The 5 test areas were on the back of the volunteers (4 areas for the formulations, 1 untreated control area).\nA sun protection factor was defined as the ratio of the MED of the formulation treated area to the MED of the untreated area."}, "[2]": {"assay_type": "physicochemical", "description": "5% Rutin micro-sized powder was dispersed in water, shaken and subsequently centrifuged at 4,000 rpm and then filtered through a 0.45 μm filter to remove any potential non-dissolved fine crystals. A Rutin nanosuspension was treated the same way but using a 0.2 μm filter."}},
  "data": [
    {"compound": "CC(=O)Oc1c(C)c(C)c2c(c1C)CCC(C)(CCC[C@H](C)CCC[C@H](C)CCCC(C)C)O2", "note": "(stereo partly drawn) [α-tocopherol acetate]", "values": [
      {"measurement": "sun protection factor (SPF) = ratio MED treated area/MED untreated area (partly given as MED)", "setting": "[1]", "value": "0.85±0.23"},
      {"measurement": "sun protection factor (SPF) = ratio MED treated area/MED untreated area (partly given as MED)", "setting": "[1]; listed as alpha-tocopherol acetate", "value": 0.85}
    ]},
    {"compound": "α-G Rutin PS", "values": [
      {"measurement": "sun protection factor (SPF) = ratio MED treated area/MED untreated area (partly given as MED)", "setting": "[1]; listed as AGRPS", "value": "1.27±0.31"},
      {"measurement": "sun protection factor (SPF) = ratio MED treated area/MED untreated area (partly given as MED)", "setting": "[1]; listed as Rutin derivative solution", "value": 1.27},
      {"measurement": "sun protection factor (SPF) = ratio MED treated area/MED untreated area (partly given as MED)", "setting": "[1]; listed as Rutin saccharide", "value": 1.27}
    ]},
    {"compound": "C[C@@H]1O[C@@H](OC[C@H]2O[C@@H](Oc3c(-c4ccc(O)c(O)c4)oc4cc(O)cc(O)c4c3=O)[C@H](O)[C@@H](O)[C@@H]2O)[C@H](O)[C@H](O)[C@H]1O", "note": "[microcrystalline Rutin suspension, Rutin]", "values": [
      {"measurement": "saturation solubility (concentration of dissolved Rutin in filtrate)", "setting": "[2]", "value": 0.0079, "unit": "%"}
    ]}
  ]
}
